Data on one compound can be found in patent US10774080B2, “Pyrimidine compound as JAK kinase inhibitor” (THERAVANCE BIOPHARMA R&D IP, LLC, priority 2017, dated 2020).

For assay [1], the system named is IL-2 stimulated STAT5 phosphorylation in Tall-1 human T cell line. The assay is described as follows: Assay 11: inhibition of IL-2 stimulated pSTAT5 in Tall-1 T cells. As to conditions: read-out: pIC50 for inhibition of IL-2 induced STAT5 phosphorylation (converted). Type of assay: cell-based. The protocol:
Assay 11: Inhibition of IL-2 Stimulated pSTAT5 in Tall-1 T Cells
The potency of test compounds for inhibition of interleukin-2 (IL-2) stimulated STAT5 phosphorylation was measured in the Tall-1 human T cell line (DSMZ) using AlphaLisa. Because IL-2 signals through JAK1/3, this assay provides a measure of JAK1/3 cellular potency.
Phosphorylated STAT5 was measured via the AlphaLISA SureFire Ultra pSTAT5 (Tyr694/699) kit (PerkinElmer).
Human T cells from the Tall-1 cell line were cultured in a 37° C., 5% CO2 humidified incubator in RPMI (Life Technologies) supplemented with 15% Heat Inactivated Fetal Bovine Serum (FBS, Life Technologies), 2 mM Glutamax (Life Technologies), 25 mM HEPES (Life Technologies) and 1× Pen/Strep (Life Technologies). […] Phosphorylated STAT5 was measured via the pSTAT5 AlphaLisa kit (PerkinElmer). […] Luminescence was measured with excitation at 689 nm and emission at […] using an EnVision plate reader (PerkinElmer) under green filtered <100 lux light.
To determine the inhibitory potency of test compounds in response to IL-2, the average emission intensity of beads bound to pSTAT5 was measured in a human T cell line. IC50 values were determined from analysis of the inhibition curves of signal intensity versus compound concentration. Data are expressed as pIC50 (negative decadic logarithm IC50) values (mean±standard deviation).

For a further assay, the target named is T1, JAK1 (Homo sapiens, UniProt P23458).
T1 construct: GST; purchased Life Technologies
Briefly: Biochemical JAK kinase assay (LanthaScreen), JAK1. As to conditions: converted from pIC50 by Cheng-Prusoff; ATP at Km 25 μM; read-out: JAK 1 (pKi) (converted). The method, then: Assay 1: Biochemical JAK and Tyk2 Kinase Assays A panel of four LanthaScreen JAK biochemical assays (JAK1, 2, 3 and Tyk2) were carried in a common kinase reaction buffer (50 mM HEPES, pH 7.5, 0.01% Brij-35, 10 mM MgCl2, and 1 mM EGTA). Recombinant GST-tagged JAK enzymes and a GFP-tagged STAT1 peptide substrate were obtained from Life Technologies. Serially or discretely diluted compounds were pre-incubated with each of the four JAK enzymes and the substrate in white 384-well microplates (Corning) at ambient temperature for 1 h. ATP was subsequently added to initiate the kinase reactions in 10 μL total volume, with 1% DMSO. […] The plates were allowed to incubate at ambient temperature for 1 h before being read on the EnVision reader (Perkin Elmer). Emission ratio signals (520 nm/495 nm) were recorded and utilized to calculate the percent inhibition values based on DMSO and background controls. For dose-response analysis, percent inhibition data were plotted vs. compound concentrations, and IC50 values were determined from a 4-parameter robust fit model with the Prism software (GraphPad Software). Results were expressed as pIC50 (negative logarithm of IC50) and subsequently converted to pKi (negative logarithm of dissociation constant, Ki) using the Cheng-Prusoff equation.
(Time-resolved FRET reads energy transfer from a long-lived donor to a nearby acceptor.)

T1 sequence (P23458 whole entry): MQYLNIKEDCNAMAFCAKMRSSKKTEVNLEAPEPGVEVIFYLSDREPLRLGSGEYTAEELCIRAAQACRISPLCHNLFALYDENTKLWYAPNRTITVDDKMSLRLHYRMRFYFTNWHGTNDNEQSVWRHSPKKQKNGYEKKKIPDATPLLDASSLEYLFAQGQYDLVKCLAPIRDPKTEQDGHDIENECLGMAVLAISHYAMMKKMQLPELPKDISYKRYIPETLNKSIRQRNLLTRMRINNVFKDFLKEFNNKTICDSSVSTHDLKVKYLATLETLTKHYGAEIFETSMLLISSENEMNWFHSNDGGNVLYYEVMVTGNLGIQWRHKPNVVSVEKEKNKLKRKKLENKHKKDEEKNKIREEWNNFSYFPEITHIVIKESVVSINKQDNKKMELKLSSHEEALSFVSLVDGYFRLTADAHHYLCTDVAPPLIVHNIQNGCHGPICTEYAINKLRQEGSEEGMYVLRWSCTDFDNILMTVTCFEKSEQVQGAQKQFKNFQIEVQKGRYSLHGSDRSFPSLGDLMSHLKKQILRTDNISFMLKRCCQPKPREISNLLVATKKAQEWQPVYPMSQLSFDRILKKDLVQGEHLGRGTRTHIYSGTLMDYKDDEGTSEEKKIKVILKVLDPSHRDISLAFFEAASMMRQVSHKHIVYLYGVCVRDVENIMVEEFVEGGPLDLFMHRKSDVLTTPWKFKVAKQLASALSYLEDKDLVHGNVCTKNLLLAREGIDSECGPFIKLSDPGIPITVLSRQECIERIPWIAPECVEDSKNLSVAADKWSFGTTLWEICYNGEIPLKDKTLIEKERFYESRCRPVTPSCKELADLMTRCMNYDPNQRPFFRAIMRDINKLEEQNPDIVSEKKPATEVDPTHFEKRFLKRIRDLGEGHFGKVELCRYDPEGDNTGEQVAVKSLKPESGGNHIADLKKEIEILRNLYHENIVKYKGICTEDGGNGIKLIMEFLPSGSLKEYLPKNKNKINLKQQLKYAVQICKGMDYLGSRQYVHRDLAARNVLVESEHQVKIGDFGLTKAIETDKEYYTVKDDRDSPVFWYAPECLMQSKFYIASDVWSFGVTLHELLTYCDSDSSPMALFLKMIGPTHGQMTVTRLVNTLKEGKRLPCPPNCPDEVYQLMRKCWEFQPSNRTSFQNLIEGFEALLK

For the compound `CCS(=O)(=O)N1[C@@H]2CCC[C@H]1C[C@H](N(C)c1nc(CO)c(F)c(Nc3cc(C)[nH]n3)n1)C2` [Compound (I), (2-(((1R,3s,5S)-9-(ethylsulfonyl)-9-azabicyclo[3.3.1]nonan-3-yl)(methyl)amino)-5-fluoro-6-((5-methyl-1H-pyrazol-3-yl)amino)pyrimidin-4-yl)methanol], the IC50 in assay [1] is 3.98 nM. Also, at JAK1, the Ki is 0.0631 nM.
